According to patent publication US6803374B2, “Compounds useful for treating hepatitis C virus” (priority 2001, dated 2004):

Each compound was assayed against T1, HCV NS5B RdRp genotype 1b (Hepatitis C virus genotype 1b, UniProt Q9WMX2) (assay: HCV NS5B RdRp enzyme assay). Conditions: IC50, HCV RdRp genotype 1b enzyme, C-terminal 18 aa truncated; average of single point IC50 values.
T1 construct: The protein was expressed with an 18 amino acid C-terminal truncation to enhance the solubility; made in house; host or cells: E. coli BL21(DE3)
Assay type: biochemical
Experimental: HCV NS5B RdRp cloning, expression and purification. The cDNA encoding the NS5B protein of HCV, genotype 1b, was cloned into the pET21a expression vector. The protein was expressed with an 18 amino acid C-terminal truncation to enhance the solubility. The E. coli competent cell line BL21(DE3) was used for expression of the protein. Cultures were grown at 37° C. for ˜4 hours until the cultures reached an optical density of 2.0 at 600 nm. The cultures were cooled to 20° C. and induced with 1 mM IPTG. Fresh ampicillin was added to a final concentration of 50 ug/ml and the cells were grown overnight at 20° C.
Cell pellets (3L) were lysed for purification to yield 15-24 mgs of purified NS5B. The lysis buffer consisted of 20 mM Tris-HCl, pH 7.4, 500 mM NaCl, 0.5% triton X-100, 1 mM DTT, 1 mM EDTA, 20% glycerol, 0.5 mg/ml lysozyme, 10 mM MgCl2, 15 ug/ml deoxyribonuclease I, and Complete TM protease inhibitor tablets (Roche). After addition of the lysis buffer, frozen cell pellets were resuspended using a tissue homogenizer. To reduce the viscosity of the sample, aliquots of the lysate were sonicated on ice using a microtip attached to a Branson sonicator. The sonicated lysate was centrifuged at 100,000×g for 1 hr at 4° C. and filtered through a 0.2 μm filter unit (Corning).
The protein was purified using three sequential chromatography steps: Heparin sepharose CL-6B, polyU sepharose 4B, and Hitrap SP sepharose (Pharmacia). The chromatography buffers were identical to the lysis buffer but contained no lysozyme, deoxyribonuclease I, MgCl2 or protease inhibitor and the NaCl concentration of the buffer was adjusted according to the requirements for charging the protein onto the column. Each column was eluted with a NaCl gradient which varied in length from 5-50 column volumes depending on the column type. After the final chromatography step, the resulting purity of the enzyme is >90% based on SDS-PAGE analysis. The enzyme was aliquoted and stored at −80° C.
HCV NS5B RdRp enzyme assay. HCV RdRp genotype 1b assays were run in assay buffer composed of 20 mM Tris-HCl, pH 7.5, 2.5 mM KCl, 5 mM MgCl2, 1 mM DTT, 1.6 U RNAse inhibitor (Promega N2515), in 96 well plates (Falcon 3918). All compounds were serially diluted in DMSO and diluted further in assay buffer such that the final concentration of DMSO in the assay was 2%. Compounds were serially diluted (3-fold each time) for a 7 point inhibition analysis. HCV RdRp genotype 1b enzyme was used at a final concentration of 28 nM. A polyA template was used at 28 nM, and the oligo-dT12-18 primer was used at 840 nM final concentration. Preannealed primer and template were obtained commercially (Amersham 27-787802). ^3H-UTP was used at 0.125 μCi (1 μM total UTP). Reaction was initiated by the addition of enzyme. Reactions were incubated at 30° C. for 45 min, and stopped by adding 30 ul of 20% ice cold TCA. Plates were chilled for 30 minutes and harvested onto Unifilter-96, GF/B plates (Packard, 6005177) using a Packard FilterMate Cell Harvester. The harvest plates were prewashed 3 times, 200 ul/well, with 100 mM NaPPi. Harvested filters were washed 30 times, 200 ul/well, with distilled water followed by ethanol. Filter plates were dried, and 30 ul/well microscint-20 was added. Plates were read on a Packard Top Count NXT.
The IC50 values for compounds were determined using […] different [I], combined with 7 nM enzyme, 800 ng of the template-primer polyC/oligoG12 (1:5 molar ratio), and 0.7 uM of ^3H GTP containing 1 uCi. The observed fractional activity (fa=vi/vo) was used in the equation IC50=[I]/(1/fa-1) to determine a single point IC50 value. Typically, the single point IC50 values derived from [I] that produced fractional activities in the range of 0.1 to 0.8 relative to the uninhibited control were averaged to calculate the IC50 value for each compound.

T1 sequence (Q9WMX2 2420-2992): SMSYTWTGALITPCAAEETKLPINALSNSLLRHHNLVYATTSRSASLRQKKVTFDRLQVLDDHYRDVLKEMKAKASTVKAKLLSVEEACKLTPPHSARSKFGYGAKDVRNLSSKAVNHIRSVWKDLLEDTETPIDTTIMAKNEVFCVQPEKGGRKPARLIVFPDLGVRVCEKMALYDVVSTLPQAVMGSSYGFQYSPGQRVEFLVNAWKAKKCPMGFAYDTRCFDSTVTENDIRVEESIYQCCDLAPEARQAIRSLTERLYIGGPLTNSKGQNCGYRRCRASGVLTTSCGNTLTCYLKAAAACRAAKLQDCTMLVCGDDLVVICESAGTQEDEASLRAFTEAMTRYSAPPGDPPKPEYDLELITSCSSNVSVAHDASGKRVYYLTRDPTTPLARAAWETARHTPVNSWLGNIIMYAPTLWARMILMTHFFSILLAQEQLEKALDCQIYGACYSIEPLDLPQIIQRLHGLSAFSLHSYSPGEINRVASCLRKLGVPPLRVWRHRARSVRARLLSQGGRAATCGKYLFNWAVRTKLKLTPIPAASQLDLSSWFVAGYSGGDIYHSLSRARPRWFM

Point of comparison: `O=C(c1ccc(-c2cccc(O)c2)c(COc2ccc(-c3nc4cc(-c5nnn[nH]5)ccc4n3C3CCCCC3)cc2)c1)N(CCO)CCO` [Example 70], IC50 500 nM. Against it:
- NC(=O)CCNC(=O)c1ccc(-c2cccc(O)c2)c(COc2ccc(-c3nc4cc(-c5nnn[nH]5)ccc4n3C3CCCCC3)cc2)c1 [Example 55] — 2.5-fold lower, 200 nM
- CC(NC(=O)c1ccc(-c2ccc(F)c(Cl)c2)c(COc2ccc(-c3nc4cc(-c5nnn[nH]5)ccc4n3C3CCCCC3)cc2)c1)C(=O)O (centres unmarked) [Example 56] — 2.6-fold lower, 190 nM
- O=C(NC(Cc1ccc(O)cc1)C(=O)O)c1ccc(-c2ccc(F)c(Cl)c2)c(COc2ccc(-c3nc4cc(-c5nnn[nH]5)ccc4n3C3CCCCC3)cc2)c1 (centres unmarked) [Example 57] — 2.8-fold lower, 180 nM
- NC(=O)CCNC(=O)c1ccc(-c2ccc(F)c(Cl)c2)c(COc2ccc(-c3nc4cc(-c5nnn[nH]5)ccc4n3C3CCCCC3)cc2)c1 [Example 59] — 1.8-fold higher, 920 nM
- COc1ccc(-c2ccc(C(=O)NC(Cc3ccc(O)cc3)C(=O)O)cc2COc2ccc(-c3nc4cc(-c5nnn[nH]5)ccc4n3C3CCCCC3)cc2)cc1OC (centres unmarked) [Example 61] — 5.6-fold lower, 90 nM
- COc1ccc(-c2ccc(C(=O)NCCC(N)=O)cc2COc2ccc(-c3nc4cc(-c5nnn[nH]5)ccc4n3C3CCCCC3)cc2)cc1OC [Example 63] — 3.3-fold lower, 150 nM
- CN1CCN(C(=O)c2ccc(-c3cccc(O)c3)c(COc3ccc(-c4nc5cc(-c6nnn[nH]6)ccc5n4C4CCCCC4)cc3)c2)CC1 [Example 64] — 2.4-fold higher, 1200 nM
- O=C(c1ccc(-c2cccc(O)c2)c(COc2ccc(-c3nc4cc(-c5nnn[nH]5)ccc4n3C3CCCCC3)cc2)c1)N1CCOCC1 [Example 65] — 3.4-fold higher, 1700 nM
- O=C(c1ccc(-c2cccc(O)c2)c(COc2ccc(-c3nc4cc(-c5nnn[nH]5)ccc4n3C3CCCCC3)cc2)c1)N1CCCC1 [Example 66] — 2.8-fold higher, 1400 nM
- O=C(NCCCO)c1ccc(-c2cccc(O)c2)c(COc2ccc(-c3nc4cc(-c5nnn[nH]5)ccc4n3C3CCCCC3)cc2)c1 [Example 67] — 1.6-fold higher, 790 nM
- CNC(=O)c1ccc(-c2cccc(O)c2)c(COc2ccc(-c3nc4cc(-c5nnn[nH]5)ccc4n3C3CCCCC3)cc2)c1 [Example 68] — within 1.5-fold, 540 nM
- O=C(c1ccc(-c2cccc(O)c2)c(COc2ccc(-c3nc4cc(-c5nnn[nH]5)ccc4n3C3CCCCC3)cc2)c1)N1CCC(O)CC1 [Example 69] — within 1.5-fold, 660 nM
- CC(NC(=O)c1ccc(-c2cccc(O)c2)c(COc2ccc(-c3nc4cc(-c5nnn[nH]5)ccc4n3C3CCCCC3)cc2)c1)C(=O)OC(C)(C)C (centres unmarked) [Example 71] — within 1.5-fold, 520 nM
- CC(C)(C)OC(=O)CNC(=O)c1ccc(-c2cccc(O)c2)c(COc2ccc(-c3nc4cc(-c5nnn[nH]5)ccc4n3C3CCCCC3)cc2)c1 [Example 72] — 1.9-fold higher, 930 nM
- O=C(O)CNC(=O)c1ccc(-c2cccc(O)c2)c(COc2ccc(-c3nc4cc(-c5nnn[nH]5)ccc4n3C3CCCCC3)cc2)c1 [Example 74] — 3.3-fold lower, 150 nM
- O=C(c1ccc(-c2ccc(F)c(Cl)c2)c(COc2ccc(-c3nc4cc(-c5nnn[nH]5)ccc4n3C3CCCCC3)cc2)c1)N1CCOCC1 [Example 76] — 2.8-fold higher, 1400 nM
- O=C(c1ccc(-c2ccc(F)c(Cl)c2)c(COc2ccc(-c3nc4cc(-c5nnn[nH]5)ccc4n3C3CCCCC3)cc2)c1)N1CCCC1 [Example 77] — 2.4-fold higher, 1200 nM
- O=C(NCCCO)c1ccc(-c2ccc(F)c(Cl)c2)c(COc2ccc(-c3nc4cc(-c5nnn[nH]5)ccc4n3C3CCCCC3)cc2)c1 [Example 78] — within 1.5-fold, 690 nM
- CNC(=O)c1ccc(-c2ccc(F)c(Cl)c2)c(COc2ccc(-c3nc4cc(-c5nnn[nH]5)ccc4n3C3CCCCC3)cc2)c1 [Example 79] — within 1.5-fold, 550 nM
- O=C(c1ccc(-c2ccc(F)c(Cl)c2)c(COc2ccc(-c3nc4cc(-c5nnn[nH]5)ccc4n3C3CCCCC3)cc2)c1)N(CCO)CCO [Example 81] — 2.2-fold higher, 1100 nM
- CC(NC(=O)c1ccc(-c2ccc(F)c(Cl)c2)c(COc2ccc(-c3nc4cc(-c5nnn[nH]5)ccc4n3C3CCCCC3)cc2)c1)C(=O)OC(C)(C)C (centres unmarked) [Example 82] — 2.6-fold higher, 1300 nM
- CC(C)(C)OC(=O)C(Cc1ccc(O)cc1)NC(=O)c1ccc(-c2ccc(F)c(Cl)c2)c(COc2ccc(-c3nc4cc(-c5nnn[nH]5)ccc4n3C3CCCCC3)cc2)c1 (centres unmarked) [Example 83] — within 1.5-fold, 560 nM
